The structures appear in SMILES notation. Where “and” joins values, the source holds several entries; their conditions need not be identical. Identical values can stand only once. Toxic doses and inconclusive results are not listed.

In PubChem BioAssay AID248 (DTP/NCI, 2004) one finds T/C data, which are given here for 17 molecules.

The subject of the assay is L1210 leukemia ip in BDF1 mice, survival T/C. Description: NCI In Vivo Anticancer Drug Screen. Data for tumor model L1210 Leukemia (intraperitoneal) in B6D2F1 (BDF1) mice. To be noted: endpoint: mean survival time, higher = longer survival. An outline of the steps:
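Antitumor effect is assessed in tumor-bearing animals. Survival in the compound arm is compared with a vehicle-dosed control arm and expressed as their quotient.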

Where [1] appears, read: dose: 100.0 mg/kg/injection, schedule: Q04DX003 (ip), vehicle: saline with Tween-80.
Setting [2] is: dose: 200.0 mg/kg/injection, schedule: Q04DX003 (ip), vehicle: saline with Tween-80.
Where [3] appears, read: dose: 400.0 mg/kg/injection, schedule: Q04DX003 (ip), vehicle: saline with Tween-80.
Setting [4] is: dose: 12.5 mg/kg/injection, schedule: Q01DX009 (ip), vehicle: Klucel (hydroxypropylcellulose) (HPC).
Where [5] appears, read: dose: 100.0 mg/kg/injection, schedule: Q01DX009 (ip), vehicle: saline with Tween-80.
[6] abbreviates: dose: 200.0 mg/kg/injection, schedule: Q01DX009 (ip), vehicle: saline with Tween-80.
The mark [7] stands for this setting: dose: 400.0 mg/kg/injection, schedule: Q01DX009 (ip), vehicle: saline with Tween-80.
The mark [8] stands for this setting: dose: 200.0 mg/kg/injection, schedule: Q04DX002 (ip), vehicle: Klucel (hydroxypropylcellulose) (HPC).

In the case of `O=C(O)CCCCSc1ncnc2nc[nH]c12`, the T/C is 106 % of control (dose: 15.0 mg/kg/injection, schedule: Q01DX009 (ip), vehicle: saline with Tween-80); 98 % of control (dose: 15.0 mg/kg/injection, schedule: Q01DX009 (oral), vehicle: saline with Tween-80); 103 % of control (dose: 30.0 mg/kg/injection, schedule: Q01DX009 (ip), vehicle: saline with Tween-80); 86 % of control (dose: 30.0 mg/kg/injection, schedule: Q01DX009 (oral), vehicle: saline with Tween-80); 92 % of control (dose: 60.0 mg/kg/injection, schedule: Q01DX009 (ip), vehicle: saline with Tween-80); 95 % of control (dose: 60.0 mg/kg/injection, schedule: Q01DX009 (oral), vehicle: saline with Tween-80). Further, the T/C was 113 % of control (dose: 100.0 mg/kg/injection, schedule: Q01DX009 (ip), vehicle: Klucel (hydroxypropylcellulose) (HPC)); 107 % of control (dose: 100.0 mg/kg/injection, schedule: Q04DX003 (ip), vehicle: Klucel (hydroxypropylcellulose) (HPC)); 103 % of control under setting [1]; 123 % of control (dose: 120.0 mg/kg/injection, schedule: Q01DX009 (ip), vehicle: saline with Tween-80); 109 % of control (dose: 120.0 mg/kg/injection, schedule: Q01DX009 (oral), vehicle: saline with Tween-80); 101 % of control (dose: 200.0 mg/kg/injection, schedule: Q01DX009 (ip), vehicle: Klucel (hydroxypropylcellulose) (HPC)). Moreover, the T/C by setting is: (dose: 200.0 mg/kg/injection, schedule: Q04DX003 (ip), vehicle: Klucel (hydroxypropylcellulose) (HPC)) 102 % of control; under setting [2], 104 % of control; (dose: 240.0 mg/kg/injection, schedule: Q01DX009 (ip), vehicle: saline with Tween-80) 105 % of control; (dose: 240.0 mg/kg/injection, schedule: Q01DX009 (oral), vehicle: saline with Tween-80) 91 % of control; (dose: 400.0 mg/kg/injection, schedule: Q01DX009 (ip), vehicle: Klucel (hydroxypropylcellulose) (HPC)) 116 % of control; (dose: 400.0 mg/kg/injection, schedule: Q04DX003 (ip), vehicle: Klucel (hydroxypropylcellulose) (HPC)) 115 % of control. Moreover, the T/C was 103 % of control under setting [3]; 118 % of control (dose: 480.0 mg/kg/injection, schedule: Q01DX009 (ip), vehicle: saline with Tween-80); 100 % of control (dose: 480.0 mg/kg/injection, schedule: Q01DX009 (oral), vehicle: saline with Tween-80); 100 % of control (dose: 720.0 mg/kg/injection, schedule: Q01DX009 (oral), vehicle: saline with Tween-80).
Turning to `O=c1[nH]cc(F)c(=O)[nH]1.[Tl]`, the T/C by setting is: (dose: 3.12 mg/kg/injection, schedule: Q04DX003 (ip), vehicle: water) 108 % of control; (dose: 6.25 mg/kg/injection, schedule: Q04DX003 (ip), vehicle: water) 107 % of control; under setting [4], 102 % of control; (dose: 12.5 mg/kg/injection, schedule: Q04DX003 (ip), vehicle: water) 118 % of control.
For `CC1(C)OCC(C2OC(C)(C)OC2C(O)c2cn(-c3ccccc3)nn2)O1` (stereo not drawn), the T/C is, setting by setting: (dose: 100.0 mg/kg/injection, schedule: Q01DX005 (ip), vehicle: saline) 102 % of control; (dose: 200.0 mg/kg/injection, schedule: Q01DX005 (ip), vehicle: saline) 104 % of control.
Regarding `ClCCN(CCCl)CCCNCCCNc1c2ccccc2nc2c1ccc1ccccc12`, the T/C by setting is: (dose: 0.08 mg/kg/injection, schedule: Q01DX Z (ip), vehicle: saline) 102 % of control; (dose: 0.16 mg/kg/injection, schedule: Q01DX Z (ip), vehicle: saline) 106 % of control; (dose: 0.31 mg/kg/injection, schedule: Q01DX Z (ip), vehicle: saline) 110 % of control; (dose: 0.62 mg/kg/injection, schedule: Q01DX Z (ip), vehicle: saline) 112 % of control; (dose: 1.25 mg/kg/injection, schedule: Q01DX Z (ip), vehicle: saline) 102 % of control; (dose: 2.5 mg/kg/injection, schedule: Q01DX Z (ip), vehicle: saline) 97 % of control.
Regarding `NNCC(F)(F)F`, the T/C (dose: 100.0 mg/kg/injection, schedule: Q01DX001 (ip), vehicle: saline) was 101 % of control.
With `CC1CCCCC1NC(=O)NCCOC(=O)OCCNC(=O)NC1CCCCC1C` (stereo not drawn), the T/C under setting [5] is 95 % of control; the T/C under setting [1] was 100 % of control; the T/C under setting [6] was 95 % of control; the T/C under setting [2] is 91 % of control; the T/C under setting [7] was 90 % of control; the T/C under setting [3] was 86 % of control.
Turning to `Nc1ccc2c(c1)C(=O)CCCC2`, the T/C is 102 % of control (dose: 100.0 mg/kg/injection, schedule: Q01DX001 (ip), vehicle: carboxymethylcellulose (CMC)); 104 % of control (dose: 200.0 mg/kg/injection, schedule: Q01DX001 (ip), vehicle: carboxymethylcellulose (CMC)); 98 % of control (dose: 400.0 mg/kg/injection, schedule: Q01DX001 (ip), vehicle: carboxymethylcellulose (CMC)).
In the case of `C1C[S+]2CCN1CC2`, under “dose: 50.0 mg/kg/injection, schedule: Q01DX001 (ip), vehicle: saline”, the T/C is 95 % of control.
`CCCCCCCCCC(=O)NN1CCOCC1`: the T/C is 105 % of control under setting [5], 89 % of control under setting [6] and 89 % of control under setting [7].
Consider `O=c1[nH]c(-c2cccc([N+](=O)[O-])c2)nc2[nH]ncc12`, for which the T/C is 94 % of control (dose: 25.0 mg/kg/injection, schedule: Q01DX001 (ip), vehicle: Klucel (hydroxypropylcellulose) (HPC)); 94 % of control (dose: 50.0 mg/kg/injection, schedule: Q01DX001 (ip), vehicle: Klucel (hydroxypropylcellulose) (HPC)); 98 % of control (dose: 100.0 mg/kg/injection, schedule: Q01DX001 (ip), vehicle: Klucel (hydroxypropylcellulose) (HPC)).
On to `O=C1CCOP(=O)(NCCCl)N1CCCl` (stereo not drawn), for which the T/C is 115 % of control (dose: 100.0 mg/kg/injection, schedule: Q04DX002 (ip), vehicle: saline) and 175 % of control (dose: 400.0 mg/kg/injection, schedule: Q04DX002 (ip), vehicle: saline).
Regarding `COc1ccc(NC(=S)NC(=O)COc2ccccc2)cc1`, the T/C under setting [5] was 101 % of control and 107 % of control; the T/C (dose: 100.0 mg/kg/injection, schedule: Q04DX002 (ip), vehicle: saline with Tween-80) was 107 % of control and 87 % of control; the T/C under setting [6] was 102 % of control; the T/C (dose: 200.0 mg/kg/injection, schedule: Q04DX002 (ip), vehicle: saline with Tween-80) is 100 % of control and 90 % of control; the T/C under setting [7] is 89 % of control; the T/C (dose: 400.0 mg/kg/injection, schedule: Q04DX002 (ip), vehicle: saline with Tween-80) was 106 % of control.
As for `COc1ccc(C=NC2C(OC(C)=O)OC(COS(=O)(=O)c3ccc(C)cc3)C(OC(C)=O)C2OC(C)=O)cc1` (stereo not drawn), the T/C runs as follows: under setting [1], 101 % of control; under setting [2], 101 % of control; under setting [3], 93 % of control.
As for `Cc1nc(N)[nH]c(=O)c1CCCNS(=O)(=O)c1ccc(C(=O)O)cc1`, the T/C under setting [8] was 88 % of control and the T/C (dose: 400.0 mg/kg/injection, schedule: Q04DX002 (ip), vehicle: Klucel (hydroxypropylcellulose) (HPC)) is 112 % of control.
`O=C1C=Cc2ccccc2/C1=C/c1nc(-c2ccc(Cl)cc2)oc1O`: the T/C is, setting by setting: (dose: 100.0 mg/kg/injection, schedule: Q04DX002 (ip), vehicle: Klucel (hydroxypropylcellulose) (HPC)) 95 % of control; under setting [8], 91 % of control.
Regarding `Clc1ccc(C2c3ccccc3C[n+]3ccccc32)cc1` (stereo not drawn), the T/C (dose: 6.25 mg/kg/injection, schedule: Q01DX009 (ip), vehicle: Klucel (hydroxypropylcellulose) (HPC)) is 102 % of control; the T/C under setting [4] is 104 % of control; the T/C (dose: 25.0 mg/kg/injection, schedule: Q01DX009 (ip), vehicle: Klucel (hydroxypropylcellulose) (HPC)) was 109 % of control; the T/C (dose: 35.0 mg/kg/injection, schedule: Q01DX009 (ip), vehicle: Klucel (hydroxypropylcellulose) (HPC)) is 112 % of control.
Take `Cc1cc(=O)[nH]c(C(F)(F)F)n1`: the T/C (dose: 44.0 mg/kg/injection, schedule: Q01DX Z (ip), vehicle: methylcellulose (MC)) is 93 % of control; the T/C (dose: 66.0 mg/kg/injection, schedule: Q01DX Z (ip), vehicle: methylcellulose (MC)) was 107 % of control; the T/C (dose: 100.0 mg/kg/injection, schedule: Q01DX Z (ip), vehicle: methylcellulose (MC)) was 102 % of control.
